Experimental data: PubChem BioAssay AID1963856 (Molecular Pharmacology Branch, DTP, NCI, 2024)

Tested on: LG0567-F671-PDC KRAS tumor spheroid viability
Assay: Anticancer human tumor LG0567-F671-PDC patient-derived lung adenocarcinoma cell line growth inhibition [KRAS2]
Conditions: spheroids with HUVEC and MSC; for IC50: curve of first compound; for viability, T/C: stronger effect = lower value
Outline: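 KRAS-mutant tumor cells were grown as spheroids with HUVEC endothelial cells and human MSCs as stroma. Targeted agents were tested alone and with KRAS pathway inhibitors. Doses started at or near clinical Cmax, or 10 microM, descending half-log.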

[1] = second compound 0.1 µM, first compound 0.01 µM
[2] = second compound 0.1 µM, first compound 0.0316 µM
[3] = second compound 0.1 µM, first compound 0.1 µM
[4] = second compound 0.316 µM, first compound 0.01 µM
[5] = second compound 0.316 µM, first compound 0.0316 µM
[6] = second compound 0.316 µM, first compound 0.1 µM
[7] = second compound 1 µM, first compound 0.01 µM
[8] = second compound 1 µM, first compound 0.0316 µM
[9] = second compound 1 µM, first compound 0.1 µM
[10] = second compound 3.16 µM, first compound 0.01 µM
[11] = second compound 3.16 µM, first compound 0.0316 µM
[12] = second compound 3.16 µM, first compound 0.1 µM
[13] = second compound 10 µM, first compound 0.0316 µM
[14] = second compound 10 µM, first compound 0.1 µM
[15] = second compound 0.1 µM, first compound 0.316 µM
[16] = second compound 0.1 µM, first compound 1 µM
[17] = second compound 0.1 µM, first compound 3.16 µM
[18] = second compound 0.316 µM, first compound 0.316 µM
[19] = second compound 0.316 µM, first compound 1 µM
[20] = second compound 0.316 µM, first compound 3.16 µM
[21] = second compound 1 µM, first compound 0.316 µM
[22] = second compound 1 µM, first compound 1 µM
[23] = second compound 1 µM, first compound 3.16 µM
[24] = second compound 3.16 µM, first compound 0.316 µM
[25] = second compound 3.16 µM, first compound 1 µM
[26] = second compound 3.16 µM, first compound 3.16 µM
[27] = second compound 0.1 µM, first compound 10 µM
[28] = second compound 0.316 µM, first compound 10 µM
[29] = second compound 1 µM, first compound 10 µM
[30] = second compound 3.16 µM, first compound 10 µM
[31] = second compound 10 µM, first compound 0.316 µM
[32] = second compound 10 µM, first compound 1 µM
[33] = second compound 10 µM, first compound 3.16 µM
[34] = second compound 10 µM, first compound 10 µM
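Also: drug exposure lasted seven days after spheroids formed for three days.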
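For viability, T/C in this document: 100% = DMSO vehicle control viability.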

| SMILES | IC50 (second compound 0.1 µM) [nM] | IC50 (second compound 0.316 µM) [nM] | IC50 (second compound 1 µM) [nM] | IC50 (second compound 3.16 µM) [nM] | IC50 (second compound 10 µM) [nM] | viability, T/C [2] [%] | viability, T/C [3] [%] | viability, T/C [5] [%] | viability, T/C [6] [%] | viability, T/C [8] [%] | viability, T/C [9] [%] | viability, T/C [11] [%] | viability, T/C [12] [%] | viability, T/C [13] [%] | viability, T/C [14] [%] | viability, T/C [15] [%] | viability, T/C [16] [%] | viability, T/C [17] [%] | viability, T/C [18] [%] | viability, T/C [19] [%] | also measured |
| --- | --- | --- | --- | --- | --- | --- | --- | --- | --- | --- | --- | --- | --- | --- | --- | --- | --- | --- | --- | --- | --- |
| CC(C)n1nc(-c2ccc3oc(N)nc3c2)c2c(N)ncnc21 + CC1OCC2(CCN(c3cnc(Sc4ccnc(N)c4Cl)c(N)n3)CC2)C1N | < 0.316 | < 0.316 | < 0.316 | < 0.316 | < 0.316 | 16.2 | 10.6 | 7.3 | 6.32 | 4.63 | 3.58 | 2.37 | 1.36 | 1.59 | 1.8 | – | – | – | – | – | viability, T/C (second compound 0.1 µM, first compound 0.000316 µM): 43.3%; viability, T/C (second compound 0.1 µM, first compound 0.001 µM): 48.6%; viability, T/C (second compound 0.1 µM, first compound 0.00316 µM): 25.5%; viability, T/C [1]: 18%; viability, T/C (second compound 0.316 µM, first compound 0.000316 µM): 35.9%; viability, T/C (second compound 0.316 µM, first compound 0.001 µM): 29%; viability, T/C (second compound 0.316 µM, first compound 0.00316 µM): 21%; viability, T/C [4]: 11.8%; viability, T/C (second compound 1 µM, first compound 0.000316 µM): 25.8%; viability, T/C (second compound 1 µM, first compound 0.001 µM): 18.8%; viability, T/C (second compound 1 µM, first compound 0.00316 µM): 11.4%; viability, T/C [7]: 5.96%; viability, T/C (second compound 3.16 µM, first compound 0.000316 µM): 17.4%; viability, T/C (second compound 3.16 µM, first compound 0.001 µM): 12%; viability, T/C (second compound 3.16 µM, first compound 0.00316 µM): 6.04%; viability, T/C [10]: 2.59%; viability, T/C (second compound 10 µM, first compound 0.000316 µM): 7.01%; viability, T/C (second compound 10 µM, first compound 0.001 µM): 5.93%; viability, T/C (second compound 10 µM, first compound 0.00316 µM): 3.89%; viability, T/C (second compound 10 µM, first compound 0.01 µM): 2.31% |
| CC1COCCN1c1cc(-c2ccnn2C)c2ccnc(-c3ccn[nH]3)c2n1 (stereo not given) + C=CC(=O)N1CCN(c2nc(OCC3CCCN3C)nc3c2CCN(c2cccc4cccc(C)c24)C3)CC1CC#N | < 10 | < 10 | < 10 | < 10 | – | 21.2 | 17.4 | 19.4 | 15.6 | 21.4 | 16.7 | 22.6 | 20.8 | – | – | 12.7 | 10.8 | 10.4 | 11.3 | 12.1 | IC50 (second compound 0.0316 µM): < 10 nM; viability, T/C (second compound 0.0316 µM, first compound 0.01 µM): 33.7%; viability, T/C (second compound 0.0316 µM, first compound 0.0316 µM): 23.5%; viability, T/C (second compound 0.0316 µM, first compound 0.1 µM): 17.1%; viability, T/C (second compound 0.0316 µM, first compound 0.316 µM): 15.6%; viability, T/C (second compound 0.0316 µM, first compound 1 µM): 14.1%; viability, T/C (second compound 0.0316 µM, first compound 3.16 µM): 12.7%; viability, T/C [1]: 26.9%; viability, T/C [4]: 24.7%; viability, T/C [20]: 10.7%; viability, T/C [7]: 26.8%; viability, T/C [21]: 13.9%; viability, T/C [22]: 13.9%; viability, T/C [23]: 13.7%; viability, T/C [10]: 26.2%; viability, T/C [24]: 17.3%; viability, T/C [25]: 13.3%; viability, T/C [26]: 12.2% |
| CCNC(=O)CC1N=C(c2ccc(Cl)cc2)c2cc(OC)ccc2-n2c(C)nnc21 (stereo not given) + CC1OCC2(CCN(c3cnc(Sc4ccnc(N)c4Cl)c(N)n3)CC2)C1N | 278 | 39.9 | < 31.6 | < 31.6 | < 31.6 | 69.1 | 71.4 | 48.4 | 50.9 | 34.5 | 28.7 | 22.7 | 18.6 | 10.9 | 11.7 | 46.2 | 30.9 | 23.5 | 32 | 20.2 | viability, T/C [27]: 23.8%; viability, T/C [20]: 14.3%; viability, T/C [28]: 14.1%; viability, T/C [21]: 21.5%; viability, T/C [22]: 11.2%; viability, T/C [23]: 8.48%; viability, T/C [29]: 8.48%; viability, T/C [24]: 12.2%; viability, T/C [25]: 7.87%; viability, T/C [26]: 4.55%; viability, T/C [30]: 4.52%; viability, T/C [31]: 7.18%; viability, T/C [32]: 2.24%; viability, T/C [33]: 1.59%; viability, T/C [34]: 0.97% |
| COc1cc2nccc(Oc3ccc(NC(=O)C4(C(=O)Nc5ccc(F)cc5)CC4)cc3)c2cc1OC + C=CC(=O)N1CCN(c2nc(=O)n(-c3c(C)ccnc3C(C)C)c3nc(-c4c(O)cccc4F)c(F)cc23)C(C)C1 | < 31.6 | < 31.6 | < 31.6 | < 31.6 | < 31.6 | 24.2 | 20.6 | 21.5 | 19.1 | 22.3 | 23.9 | 21.8 | 23.4 | 18.3 | 18.4 | 21.3 | 18.9 | 10.8 | 17.1 | 14.9 | viability, T/C [27]: 48.9%; viability, T/C [20]: 9.77%; viability, T/C [28]: 51.1%; viability, T/C [21]: 17.6%; viability, T/C [22]: 17.3%; viability, T/C [23]: 9.01%; viability, T/C [29]: 55%; viability, T/C [24]: 20.3%; viability, T/C [25]: 16.8%; viability, T/C [26]: 8.81%; viability, T/C [30]: 50.4%; viability, T/C [31]: 17.6%; viability, T/C [32]: 13.7%; viability, T/C [33]: 10.7%; viability, T/C [34]: 29.2% |
| COc1cc2nccc(Oc3ccc(NC(=O)C4(C(=O)Nc5ccc(F)cc5)CC4)cc3)c2cc1OC + CC1OCC2(CCN(c3cnc(Sc4ccnc(N)c4Cl)c(N)n3)CC2)C1N | < 31.6 | < 31.6 | < 31.6 | < 31.6 | < 31.6 | 54 | 50.4 | 33 | 30.9 | 25.7 | 22.8 | 19.6 | 15.2 | 13.1 | 9.16 | 33.3 | 31.5 | 30.3 | 26.6 | 20.9 | viability, T/C [27]: 88.4%; viability, T/C [20]: 13.3%; viability, T/C [28]: 69.7%; viability, T/C [21]: 18.4%; viability, T/C [22]: 13.8%; viability, T/C [23]: 9.19%; viability, T/C [29]: 43.3%; viability, T/C [24]: 8.47%; viability, T/C [25]: 6.57%; viability, T/C [26]: 6.28%; viability, T/C [30]: 25.8%; viability, T/C [31]: 8.96%; viability, T/C [32]: 6.33%; viability, T/C [33]: 3.72%; viability, T/C [34]: 23.3% |
